Laboratory results from article PMC8333425, “Discovery of a dual Ras and ARF6 inhibitor from a GPCR endocytosis screen” (Nature Communications, 2021).

How the values were obtained:
Assay in all cases: KINOMEscan kinase binding assay
[1] = target: T1, 384 kinases from the human genome (Homo sapiens, UniProt Q96L34); details: kinase MARK4 (Entrez MARK4)
T1 construct: purchased Eurofin/DiscoverX
Text: (§1) We reasoned that because internalizing AT1R and its targeting to intracellular compartments can support continued MAPK signaling, and since 21 inhibits receptor internalization, it should also impede to some extent ERK1/2 activation. […] Receptor-mediated ERK1/2 signaling can involve upstream kinases such as PKC, BRAF, and MEK1[35],[36]. […] To exclude other kinases potentially involved in ERK1/2 and Akt activation as targets of 21, we ran a kinase binding assay (KINOMEscan™) on 384 kinases from the human genome. Remarkably, a very high selectivity score S(10) of 0.008 was found (Supplementary Data 3).
(§2) The chemical library used for initial screening was from Chembridge DiverSet™ (60,000 compounds), Maybridge HitFinder™ (16,000 compounds), Maybridge (selected, 16,000 compounds), SPECS (selected, 16000 compounds), Microsource Discovery Spectrum (2000 compounds), Biomol (natural products, 500 compounds), Prestwick (commercialized products, 1120 compounds), SIGMA LopacTM (1280 compounds) and internal collection (synthesized at Université de Montréal-IRIC, ~4000 compounds). Compounds were all assigned an Université de Montréal number (UM) for internal use. Screen was performed at IRIC HTS facility. KINOMEscan™ profiling was serviced by Eurofin/DiscoverX (San Diego, USA).
(§3) Description of Additional Supplementary Files […]
(§4) File Name: Supplementary Data 3
(§5) Description: KINOMEscan results. Compound 21’s effect was tested on 384 kinases. Data represent kinases binding to their ligands in presence of 10 µM of 21, as compared to DMSO (100%). Results are from one experiment and represent the average of duplicates. Three kinases (FLT3, KIT, and PDGFRB) out of 384 were more than 90% affected (selectivity score S(10) of 0.008). […]

[2] = target: T2, 384 kinases from the human genome (Homo sapiens, UniProt P49840); details: kinase GSK3A (Entrez GSK3A)
T2 construct: purchased Eurofin/DiscoverX
Text: as §1, §2, §3, §4, §5

[3] = target: T3, 384 kinases from the human genome (Homo sapiens, UniProt Q9H4A3); details: kinase WNK1 (Entrez WNK1)
T3 construct: purchased Eurofin/DiscoverX
Text: as §1, §2, §3, §4, §5

[4] = target: T4, 384 kinases from the human genome (Homo sapiens, UniProt O94806); details: kinase PRKD3 (Entrez PRKD3)
T4 construct: purchased Eurofin/DiscoverX
Text: as §1, §2, §3, §4, §5

[5] = target: T5, 384 kinases from the human genome (Homo sapiens, UniProt Q04759); details: kinase PRKCQ (Entrez PRKCQ)
T5 construct: purchased Eurofin/DiscoverX
Text: as §1, §2, §3, §4, §5

[6] = target: T6, 384 kinases from the human genome (Homo sapiens, UniProt Q8IWQ3); details: kinase BRSK2 (Entrez BRSK2)
T6 construct: purchased Eurofin/DiscoverX
Text: as §1, §2, §3, §4, §5

[7] = target: T7, 384 kinases from the human genome (Homo sapiens, UniProt Q9UIK4); details: kinase DAPK2 (Entrez DAPK2)
T7 construct: purchased Eurofin/DiscoverX
Text: as §1, §2, §3, §4, §5

[8] = target: T8, 384 kinases from the human genome (Homo sapiens, UniProt P45984); details: kinase JNK2 (Entrez MAPK9)
T8 construct: purchased Eurofin/DiscoverX
Text: as §1, §2, §3, §4, §5

[9] = target: T9, 384 kinases from the human genome (Homo sapiens, UniProt Q9HAZ1); details: kinase CLK4 (Entrez CLK4)
T9 construct: purchased Eurofin/DiscoverX
Text: as §1, §2, §3, §4, §5

[10] = target: T10, 384 kinases from the human genome (Homo sapiens, UniProt Q13164); details: kinase ERK5 (Entrez MAPK7)
T10 construct: purchased Eurofin/DiscoverX
Text: as §1, §2, §3, §4, §5

[11] = target: T11, 384 kinases from the human genome (Homo sapiens, UniProt O15264); details: kinase p38-delta (Entrez MAPK13)
T11 construct: purchased Eurofin/DiscoverX
Text: as §1, §2, §3, §4, §5

[12] = target: T12, 384 kinases from the human genome (Homo sapiens, UniProt Q9Y4K4); details: kinase MAP4K5 (Entrez MAP4K5)
T12 construct: purchased Eurofin/DiscoverX
Text: as §1, §2, §3, §4, §5

[13] = target: T13, 384 kinases from the human genome (Homo sapiens, UniProt P29317); details: kinase EPHA2 (Entrez EPHA2)
T13 construct: purchased Eurofin/DiscoverX
Text: as §1, §2, §3, §4, §5

[14] = target: T14, 384 kinases from the human genome (Homo sapiens, UniProt Q15569); details: kinase TESK1 (Entrez TESK1)
T14 construct: purchased Eurofin/DiscoverX
Text: as §1, §2, §3, §4, §5

[15] = target: T15, 384 kinases from the human genome (Homo sapiens, UniProt P07947); details: kinase YES (Entrez YES1)
T15 construct: purchased Eurofin/DiscoverX
Text: as §1, §2, §3, §4, §5

[16] = target: T16, 384 kinases from the human genome (Homo sapiens, UniProt P19525); details: kinase PRKR (Entrez EIF2AK2)
T16 construct: purchased Eurofin/DiscoverX
Text: as §1, §2, §3, §4, §5

[17] = target: T17, 384 kinases from the human genome (Homo sapiens, UniProt P49760); details: kinase CLK2 (Entrez CLK2)
T17 construct: purchased Eurofin/DiscoverX
Text: as §1, §2, §3, §4, §5

[18] = target: T18, 384 kinases from the human genome (Homo sapiens, UniProt P37023); details: kinase ACVRL1 (Entrez ACVRL1)
T18 construct: purchased Eurofin/DiscoverX
Text: as §1, §2, §3, §4, §5

[19] = target: T19, 384 kinases from the human genome (Homo sapiens, UniProt Q9NY57); details: kinase YANK2 (Entrez STK32B)
T19 construct: purchased Eurofin/DiscoverX
Text: as §1, §2, §3, §4, §5

[20] = target: T20, 384 kinases from the human genome (Homo sapiens, UniProt O60331); details: kinase PIP5K1C (Entrez PIP5K1C)
T20 construct: purchased Eurofin/DiscoverX
Text: as §1, §2, §3, §4, §5

[21] = target: T21, 384 kinases from the human genome (Homo sapiens, UniProt P33981); details: kinase TTK (Entrez TTK)
T21 construct: purchased Eurofin/DiscoverX
Text: as §1, §2, §3, §4, §5

[22] = target: T22, 384 kinases from the human genome (Homo sapiens, UniProt O14976); details: kinase GAK (Entrez GAK)
T22 construct: purchased Eurofin/DiscoverX
Text: as §1, §2, §3, §4, §5

[23] = target: T23, 384 kinases from the human genome (Homo sapiens, UniProt P32298); details: kinase GRK4 (Entrez GRK4)
T23 construct: purchased Eurofin/DiscoverX
Text: as §1, §2, §3, §4, §5

[24] = target: T24, 384 kinases from the human genome (Homo sapiens, UniProt P51957); details: kinase NEK4 (Entrez NEK4)
T24 construct: purchased Eurofin/DiscoverX
Text: as §1, §2, §3, §4, §5

[25] = target: T25, 384 kinases from the human genome (Homo sapiens, UniProt P35590); details: kinase TIE1 (Entrez TIE1)
T25 construct: purchased Eurofin/DiscoverX
Text: as §1, §2, §3, §4, §5

[26] = target: T26, 384 kinases from the human genome (Homo sapiens, UniProt Q9UEE5); details: kinase DRAK1 (Entrez STK17A)
T26 construct: purchased Eurofin/DiscoverX
Text: as §1, §2, §3, §4, §5

T15 sequence (P07947 whole entry): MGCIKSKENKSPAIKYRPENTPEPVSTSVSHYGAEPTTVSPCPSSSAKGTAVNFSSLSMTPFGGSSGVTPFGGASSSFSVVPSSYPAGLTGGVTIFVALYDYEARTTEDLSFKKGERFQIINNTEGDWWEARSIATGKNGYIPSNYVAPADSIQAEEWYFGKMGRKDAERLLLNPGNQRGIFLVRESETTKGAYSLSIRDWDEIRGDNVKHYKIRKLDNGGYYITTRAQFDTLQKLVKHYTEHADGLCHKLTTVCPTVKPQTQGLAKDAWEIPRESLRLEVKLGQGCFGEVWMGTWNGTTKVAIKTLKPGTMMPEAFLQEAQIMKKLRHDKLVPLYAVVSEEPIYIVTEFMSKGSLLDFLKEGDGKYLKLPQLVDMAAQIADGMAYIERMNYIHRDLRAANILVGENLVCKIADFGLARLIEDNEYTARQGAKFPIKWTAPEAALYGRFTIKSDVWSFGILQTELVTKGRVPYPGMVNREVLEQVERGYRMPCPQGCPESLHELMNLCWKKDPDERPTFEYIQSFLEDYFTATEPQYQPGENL
T14 sequence (Q15569 whole entry): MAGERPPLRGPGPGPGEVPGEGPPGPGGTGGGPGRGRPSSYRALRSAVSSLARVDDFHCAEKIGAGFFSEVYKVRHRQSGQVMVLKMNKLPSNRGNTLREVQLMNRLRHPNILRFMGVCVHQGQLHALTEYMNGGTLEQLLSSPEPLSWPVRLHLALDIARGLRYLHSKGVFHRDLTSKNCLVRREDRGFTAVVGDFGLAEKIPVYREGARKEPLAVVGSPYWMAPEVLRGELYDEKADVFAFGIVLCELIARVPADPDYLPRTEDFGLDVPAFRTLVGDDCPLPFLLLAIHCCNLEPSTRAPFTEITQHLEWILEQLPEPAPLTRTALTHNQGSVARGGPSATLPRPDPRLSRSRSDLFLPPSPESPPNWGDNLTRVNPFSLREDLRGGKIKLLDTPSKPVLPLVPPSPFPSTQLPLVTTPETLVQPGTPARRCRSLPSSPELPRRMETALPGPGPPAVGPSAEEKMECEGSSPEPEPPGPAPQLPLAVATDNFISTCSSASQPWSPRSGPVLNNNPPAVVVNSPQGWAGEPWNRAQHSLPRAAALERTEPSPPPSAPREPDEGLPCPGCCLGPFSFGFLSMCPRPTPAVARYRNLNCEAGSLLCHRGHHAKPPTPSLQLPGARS
T24 sequence (P51957 whole entry): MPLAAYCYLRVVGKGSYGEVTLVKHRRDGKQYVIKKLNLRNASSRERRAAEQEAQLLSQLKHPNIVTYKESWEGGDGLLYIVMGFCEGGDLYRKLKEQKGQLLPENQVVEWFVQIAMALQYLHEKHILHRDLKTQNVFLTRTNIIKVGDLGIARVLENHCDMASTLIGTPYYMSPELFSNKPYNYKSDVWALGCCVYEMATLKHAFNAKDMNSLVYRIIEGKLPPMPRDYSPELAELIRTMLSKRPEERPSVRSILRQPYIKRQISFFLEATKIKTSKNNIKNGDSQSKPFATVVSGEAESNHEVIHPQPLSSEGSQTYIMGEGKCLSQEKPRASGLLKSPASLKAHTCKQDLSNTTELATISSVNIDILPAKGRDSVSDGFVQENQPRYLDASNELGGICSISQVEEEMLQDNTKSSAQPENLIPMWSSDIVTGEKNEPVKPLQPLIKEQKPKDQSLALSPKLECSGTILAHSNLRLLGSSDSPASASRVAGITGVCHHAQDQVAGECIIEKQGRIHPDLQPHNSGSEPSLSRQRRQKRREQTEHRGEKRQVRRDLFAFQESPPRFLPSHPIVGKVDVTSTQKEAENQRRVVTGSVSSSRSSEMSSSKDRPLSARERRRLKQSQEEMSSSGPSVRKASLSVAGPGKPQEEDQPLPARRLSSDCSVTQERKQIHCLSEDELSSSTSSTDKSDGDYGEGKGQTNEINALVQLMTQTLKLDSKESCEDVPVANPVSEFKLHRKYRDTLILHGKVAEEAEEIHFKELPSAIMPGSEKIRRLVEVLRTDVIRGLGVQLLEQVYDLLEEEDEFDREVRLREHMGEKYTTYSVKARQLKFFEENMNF
T9 sequence (Q9HAZ1 whole entry): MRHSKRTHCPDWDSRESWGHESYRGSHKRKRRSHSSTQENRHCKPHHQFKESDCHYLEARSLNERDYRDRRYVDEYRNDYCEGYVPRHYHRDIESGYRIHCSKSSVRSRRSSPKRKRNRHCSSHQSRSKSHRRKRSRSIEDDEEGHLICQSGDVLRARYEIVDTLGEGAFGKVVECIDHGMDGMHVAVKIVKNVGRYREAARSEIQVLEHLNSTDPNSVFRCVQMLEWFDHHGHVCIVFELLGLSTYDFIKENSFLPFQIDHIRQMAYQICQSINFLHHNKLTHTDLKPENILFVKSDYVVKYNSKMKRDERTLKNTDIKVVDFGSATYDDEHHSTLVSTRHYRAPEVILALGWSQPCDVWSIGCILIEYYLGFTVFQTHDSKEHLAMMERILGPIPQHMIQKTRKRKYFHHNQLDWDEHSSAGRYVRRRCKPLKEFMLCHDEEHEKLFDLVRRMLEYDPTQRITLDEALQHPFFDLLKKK
T23 sequence (P32298 whole entry): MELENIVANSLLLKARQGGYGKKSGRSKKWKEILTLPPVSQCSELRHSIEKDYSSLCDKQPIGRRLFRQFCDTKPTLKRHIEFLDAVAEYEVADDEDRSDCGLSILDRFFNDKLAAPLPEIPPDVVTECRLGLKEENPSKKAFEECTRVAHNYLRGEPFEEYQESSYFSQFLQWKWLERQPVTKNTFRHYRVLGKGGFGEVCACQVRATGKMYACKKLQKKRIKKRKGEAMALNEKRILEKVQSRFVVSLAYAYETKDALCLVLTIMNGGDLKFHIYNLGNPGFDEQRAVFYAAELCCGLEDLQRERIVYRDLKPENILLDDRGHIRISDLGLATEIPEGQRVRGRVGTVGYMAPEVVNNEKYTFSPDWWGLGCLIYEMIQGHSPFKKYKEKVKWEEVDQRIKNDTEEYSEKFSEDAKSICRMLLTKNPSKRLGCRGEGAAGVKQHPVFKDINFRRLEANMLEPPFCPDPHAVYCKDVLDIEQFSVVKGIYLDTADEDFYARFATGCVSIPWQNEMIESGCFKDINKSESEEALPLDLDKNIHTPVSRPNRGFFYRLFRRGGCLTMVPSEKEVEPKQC
T20 sequence (O60331 whole entry): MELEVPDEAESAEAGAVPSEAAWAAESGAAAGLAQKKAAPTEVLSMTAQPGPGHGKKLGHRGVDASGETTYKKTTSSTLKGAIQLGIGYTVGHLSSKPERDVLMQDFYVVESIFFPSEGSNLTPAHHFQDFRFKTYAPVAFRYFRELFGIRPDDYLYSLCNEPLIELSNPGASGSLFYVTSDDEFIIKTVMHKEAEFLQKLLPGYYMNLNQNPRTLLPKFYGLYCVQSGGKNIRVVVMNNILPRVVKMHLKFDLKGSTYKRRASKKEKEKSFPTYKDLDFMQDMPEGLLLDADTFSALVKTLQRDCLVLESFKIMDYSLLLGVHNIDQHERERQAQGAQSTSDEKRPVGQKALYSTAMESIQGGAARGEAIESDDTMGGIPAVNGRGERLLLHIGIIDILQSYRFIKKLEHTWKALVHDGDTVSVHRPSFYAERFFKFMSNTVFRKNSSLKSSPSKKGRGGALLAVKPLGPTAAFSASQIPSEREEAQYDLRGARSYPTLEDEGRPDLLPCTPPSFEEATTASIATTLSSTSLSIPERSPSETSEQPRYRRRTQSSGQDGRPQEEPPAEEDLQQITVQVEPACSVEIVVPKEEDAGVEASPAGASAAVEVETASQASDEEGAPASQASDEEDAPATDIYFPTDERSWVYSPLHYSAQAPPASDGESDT
T25 sequence (P35590 22-1138): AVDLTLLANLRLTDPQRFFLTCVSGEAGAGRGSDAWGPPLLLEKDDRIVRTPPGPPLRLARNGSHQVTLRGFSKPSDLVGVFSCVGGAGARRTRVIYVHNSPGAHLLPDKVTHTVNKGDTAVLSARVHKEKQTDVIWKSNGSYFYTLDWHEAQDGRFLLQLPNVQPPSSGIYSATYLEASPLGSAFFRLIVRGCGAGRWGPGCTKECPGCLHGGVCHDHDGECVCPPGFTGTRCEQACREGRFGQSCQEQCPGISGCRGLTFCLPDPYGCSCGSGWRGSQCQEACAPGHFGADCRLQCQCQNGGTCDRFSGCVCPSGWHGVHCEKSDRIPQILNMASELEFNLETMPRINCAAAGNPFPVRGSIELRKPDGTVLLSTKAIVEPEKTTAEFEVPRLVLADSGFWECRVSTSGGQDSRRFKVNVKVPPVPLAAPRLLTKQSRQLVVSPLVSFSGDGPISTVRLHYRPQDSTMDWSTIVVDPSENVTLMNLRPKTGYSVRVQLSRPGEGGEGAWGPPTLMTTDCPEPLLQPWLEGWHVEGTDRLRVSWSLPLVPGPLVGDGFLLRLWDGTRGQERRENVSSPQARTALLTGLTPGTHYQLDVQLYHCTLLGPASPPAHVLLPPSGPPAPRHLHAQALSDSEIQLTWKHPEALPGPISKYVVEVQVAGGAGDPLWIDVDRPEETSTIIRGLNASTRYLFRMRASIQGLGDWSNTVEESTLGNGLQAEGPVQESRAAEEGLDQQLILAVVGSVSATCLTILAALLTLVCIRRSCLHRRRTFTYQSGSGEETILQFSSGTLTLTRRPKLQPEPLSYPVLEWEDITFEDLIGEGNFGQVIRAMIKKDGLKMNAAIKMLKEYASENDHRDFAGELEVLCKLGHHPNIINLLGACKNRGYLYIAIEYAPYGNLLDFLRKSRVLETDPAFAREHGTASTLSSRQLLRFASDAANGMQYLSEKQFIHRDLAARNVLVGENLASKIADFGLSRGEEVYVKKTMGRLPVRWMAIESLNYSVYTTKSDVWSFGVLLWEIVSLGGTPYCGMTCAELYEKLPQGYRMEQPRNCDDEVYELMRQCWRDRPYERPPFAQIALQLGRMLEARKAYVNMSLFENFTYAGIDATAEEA

Compound: CC(C)C(=O)N1CCN(c2ccc(NC(=O)c3cc4ccccc4o3)cc2Cl)CC1 [Compound 21]
- Percent Control [1]: 98%
- Percent Control [2]: 92%
- Percent Control [3]: 94%
- Percent Control [4]: 98%
- Percent Control [5]: 93%
- Percent Control [6]: 97%
- Percent Control [7]: 100%
- Percent Control [8]: 70%
- Percent Control [9]: 79%
- Percent Control [10]: 99%
- Percent Control [11]: 88%
- Percent Control [12]: 80%
- Percent Control [13]: 40%
- Percent Control [14]: 82%
- Percent Control [15]: 89%
- Percent Control [16]: 65%
- Percent Control [17]: 100%
- Percent Control [18]: 94%
- Percent Control [19]: 98%
- Percent Control [20]: 100%
- Percent Control [21]: 92%
- Percent Control [22]: 96%
- Percent Control [23]: 99%
- Percent Control [24]: 98%
- Percent Control [25]: 100%
- Percent Control [26]: 93%
